≈ marks a conversion by molar mass, not a printed value. Each block holds one molecule with its values, some of them ahead of it.
Columns and labels:
[1] = DPPH radical scavenging assay; format: biochemical; conditions: mean ± S.D., n = 6
Protocol: Standard methods were used to evaluate the Fe^3+-reducing capacity of the extract. The DPPH (2,2-diphenyl-1-picrylhydrazyl) scavenging potential of the extract was investigated according to Ghate et al, 2013 [9]. The scavenging percentage of PNME was evaluated from the values of the control and the test samples.

[2] = Hypochlorous acid scavenging assay; format: biochemical; conditions: mean ± S.D., n = 6
[3] = Fe2+ chelating activity assay; format: biochemical; conditions: for Iron chelation activity (in words): Fig 12C
Protocol: (§1) The Fe^2+ chelating ability was determined as described earlier. […] The densitometric analysis of the DNA bands was performed using ImageJ 1.47v tool by the software company NIH, USA. The DNA supercoil protection capacity of the fruit extract was expressed as the [P]50 value, the amount of sample required for 50% protection. The degree of inhibition of Fe^2+-mediated lipid peroxidation was assessed by estimating the TBARS by the method of Ghate et al. 2013 [9] using freshly prepared brain homogenates of Swiss albino mouse brains. The results are expressed as a percentage of inhibition.

[4] = test system: iron overload induced hepatotoxicity in mice; assay: Serum markers in iron-dextran overloaded mice after oral therapy; format: in vivo, Swiss albino mice; conditions: desirox 20 mg/kg b.w. oral
Protocol: (one dose every alternative days).
Aspartate amino transferase (ASAT), alanine amino transferase (ALAT), and billirubin levels in the serum were evaluated using commercially available kits from Merck (India). Moreover, alkaline phosphatase (ALP) levels in the serum were measured by a kit procured from Sentinel Diagnostics, Italy.

[5] = Superoxide anion scavenging assay; format: biochemical; conditions: mean ± S.D., n = 6
[6] = Hydroxyl radical scavenging assay; format: biochemical; conditions: mean ± S.D., n = 6
[7] = Singlet oxygen scavenging assay; format: biochemical; conditions: mean ± S.D., n = 6
[8] = test system: Fe2+-mediated lipid peroxidation; assay: Inhibition of Fe2+-mediated lipid peroxidation (TBARS) in brain homogenates; format: biochemical, Swiss albino mouse; conditions: mouse brain homogenate, mean ± S.D., n = 6
Protocol: as §1

[9] = Peroxynitrite scavenging assay; format: biochemical; conditions: mean ± S.D., n = 6

IC50 DPPH scavenging [1]: 5.29 ± 0.28 µg/mL (≈ 30 µM) | IC50 Hypochlorous acid (HOCl) scavenging [2]: 235.96 ± 5.75 µg/mL (≈ 1340 µM)
Molecule: O=C1O[C@H]([C@@H](O)CO)C(O)=C1O [Ascorbic acid]
Iron chelation activity (in words) [3]: failed to show any activity

Molecule: O=C(O)c1ccc(-n2nc(-c3ccccc3O)nc2-c2ccccc2O)cc1 [desirox, Deferasirox]
ALAT % change ([4]; D, change versus blank group B): 52.80% | ALP % change ([4]; D, change versus blank group B): 84.44% | ASAT % change ([4]; D, change versus blank group B): 17.36% | Bilirubin % change ([4]; D, change versus blank group B): 10.97% | ALAT ([4]; serum, 21 days (D)): 23.55±1.09 ^X3Y3 Unit/L | ALP ([4]; serum, 21 days (D)): 61.01± 2.44 ^X3Y3 Unit/L | ASAT ([4]; serum, 21 days (D)): 79.35±4.37 ^X1 Y3 Unit/L

IC50 Superoxide anion (O2•−) scavenging [5]: 42.06 ± 1.35 µg/mL (≈ 139 µM)
Molecule: O=c1c(O)c(-c2ccc(O)c(O)c2)oc2cc(O)cc(O)c12 [Quercetin]

Molecule: COC(=O)[C@H]1[C@H]2C[C@@H]3c4[nH]c5cc(OC)ccc5c4CCN3C[C@H]2C[C@@H](OC(=O)c2cc(OC)c(OC)c(OC)c2)[C@@H]1OC [Reserpine, reserpine]
Iron chelation activity (in words) [3]: failed to show any activity

Molecule: O.Oc1cc(O)c2c(c1)O[C@H](c1ccc(O)c(O)c1)[C@@H](O)C2 [catechin]
Iron chelation activity (in words) [3]: failed to show any activity

IC50 Hydroxyl radical (OH•) scavenging [6]: 571.45 ± 20.12 µg/mL (≈ 3140 µM)
Molecule: OC[C@@H](O)[C@@H](O)[C@H](O)[C@H](O)CO [Mannitol]

IC50 Singlet oxygen (1O2) scavenging [7]: 46.15 ± 1.16 µg/mL (≈ 224 µM)
Molecule: O=C(O)CCCC[C@@H]1CCSS1 (racemic) [Lipoic acid]

IC50 Lipid peroxidation [8]: 6.76 ± 0.17 µg/mL (≈ 27 µM)
Molecule: Cc1c(C)c2c(c(C)c1O)CCC(C)(C(=O)O)O2 (stereo not shown) [Trolox, 6-hydroxy-2,5,7,8-tetramethylchroman-2-carboxylic acid]

Molecule: tannic acid
Iron chelation activity (in words) [3]: most potent iron chelator

IC50 Iron chelating activity ([3]; mean ± S.D., n = 6): 1.27 ± 0.05 µg/mL (≈ 4.35 µM)
Molecule: O=C(O)CN(CCN(CC(=O)O)CC(=O)O)CC(=O)O [EDTA, Ethylenediamine tetraacetic acid]

IC50 Peroxynitrite (ONOO-) scavenging [9]: 0.876 ± 0.57 mg/mL (≈ 5150 µM)
Molecule: O=C(O)c1cc(O)c(O)c(O)c1 [Gallic acid]
